From ChEMBL document CHEMBL4433248, “SAR studies in the sulfonyl carboxamide class of HBV capsid assembly modulators” (Bioorg Med Chem Lett, 2019)
One block for each compound: values may come before it.

Tests used:
[1] = Cytotoxicity against human HepG2.2.15 cells assessed as reduction in cell viability incubated for 3 days followed by replacement of fresh medium containing compound and measured after 3 days by cell titer glo-based luminescence assay; parameters: species or system HepG2 2.2.15
[2] = Half life in human hepatocytes; assay type: ADME, cell-based, Hepatocyte
[3] = Half life in human at 200 mg; assay type: ADME
[4] = test system: Hepatitis B virus; assay: Antiviral activity against Hepatitis B virus infected in naive HBeAg positive patients assessed as log10 reduction in HBV DNA at 600 mg bid; assay type: functional
[5] = Lipophilicity, log P of the compound; assay type: physicochemical; conditions: octanol/water
[6] = Ratio of drug concentration in liver to plasma of CD1 mouse; assay type: ADME
[7] = Oral bioavailability in CD1 mouse at 10 mg/kg; assay type: ADME, organism-based; conditions: in vivo
[8] = Oral bioavailability in Mongrel dog at 3 mg/kg; assay type: ADME, organism-based, Canis lupus familiaris; conditions: in vivo
[9] = Half life in CD1 mouse at 10 mg/kg, po or 2 mg/kg, iv; assay type: ADME, organism-based; conditions: in vivo
[10] = Half life in Sprague-Dawley rat at 10 mg/kg, po or 2 mg/kg, iv; assay type: ADME, organism-based; conditions: in vivo
[11] = Half life in Mongrel dog at 3 mg/kg, po or 1 mg/kg, iv; assay type: ADME, organism-based, Canis lupus familiaris; conditions: in vivo
[12] = Clearance in CD1 mouse at 10 mg/kg, po or 2 mg/kg, iv; assay type: ADME, organism-based; conditions: in vivo
[13] = Clearance in Sprague-Dawley rat at 10 mg/kg, po or 2 mg/kg, iv; assay type: ADME, organism-based; conditions: in vivo
[14] = Clearance in Mongrel dog at 3 mg/kg, po or 1 mg/kg, iv; assay type: ADME, organism-based, Canis lupus familiaris; conditions: in vivo
[15] = Volume of distribution at steady state in CD1 mouse at 10 mg/kg, po or 2 mg/kg, iv; assay type: ADME, organism-based; conditions: in vivo, read-out: Vdss
[16] = Volume of distribution at steady state in Sprague-Dawley rat at 10 mg/kg, po or 2 mg/kg, iv; assay type: ADME, organism-based; conditions: in vivo, read-out: Vdss
[17] = Volume of distribution at steady state in Mongrel dog at 3 mg/kg, po or 1 mg/kg, iv; assay type: ADME, organism-based, Canis lupus familiaris; conditions: in vivo, read-out: Vdss
[18] = test system: Hepatitis B virus; assay: Ratio of EC50 for antiviral activity against Hepatitis B virus infected in human HepG2.2.15 cells in presence of 40% normal human serum to EC50 for antiviral activity against Hepatitis B virus infected in human HepG2.2.15 cells in absence of 40% normal human serum; assay type: functional
[19] = Half life in CD1 mouse hepatocytes; assay type: ADME, cell-based, Hepatocyte
[20] = Half life in Sprague-Dawley rat hepatocytes; assay type: ADME, cell-based, Hepatocyte
[21] = Half life in Mongrel dog hepatocytes; assay type: ADME, cell-based, Canis lupus familiaris, Hepatocyte
[22] = Stability in human hepatocytes; assay type: ADME, cell-based, Hepatocyte
[23] = Solubility of the compound in DMSO; assay type: physicochemical
[24] = AUC in CD1 mouse plasma at 5 mg/kg; assay type: ADME, organism-based; conditions: in vivo
[25] = AUC in CD1 mouse liver at 5 mg/kg; assay type: ADME, organism-based; conditions: in vivo

Compound: O=C(Nc1ccc(F)c(Cl)c1)c1ccc(F)c(S(=O)(=O)N2CCCC(O)CC2)c1 (stereo not drawn)
CC50 at 72 h [1]: 29 µM

Compound: CC(O)C1CCCCN(S(=O)(=O)c2cc(C(=O)Nc3ccc(F)c(Cl)c3)ccc2F)C1 (stereo not drawn)
CC50 at 72 h [1]: 2.6 µM

half-life [2]: 0.817 h
Compound: O=C(Nc1ccc(F)c(Cl)c1)c1ccc(F)c(S(=O)(=O)N2CCCCC(O)C2)c1 (stereo not drawn)
CC50 at 72 h [1]: 15 µM

half-life [2]: 0.0833 h
Compound: O=C(Nc1ccc(F)c(Cl)c1)c1ccc(F)c(S(=O)(=O)N2CCCCC(O)CC2)c1 (stereo not drawn)
CC50 at 72 h [1]: 24 µM

Compound: O=C(Nc1ccc(F)c(Cl)c1)c1ccc(F)c(S(=O)(=O)N2CCCCC(CO)C2)c1 (stereo not drawn)
CC50 at 72 h [1]: 3.1 µM

half-life [2]: 1.28 h
Compound: CC1(O)COCCN(S(=O)(=O)c2cc(C(=O)Nc3ccc(F)c(Cl)c3)ccc2F)C1 (stereo not drawn)
CC50 at 72 h [1]: 7.1 to 15 µM

Compound: O=C(Nc1ccc(F)c(Cl)c1)c1ccc(F)c(S(=O)(=O)N2CCOCC(F)C2)c1 (stereo not drawn)
CC50 at 72 h [1]: 15 µM

Compound: O=C(Nc1ccc(F)c(Cl)c1)c1ccc(F)c(S(=O)(=O)N2CCSCC(O)C2)c1 (stereo not drawn)
CC50 at 72 h [1]: 19 µM

Compound: O=C(Nc1ccc(F)c(Cl)c1)c1ccc(F)c(S(=O)(=O)N2CCCCC(F)(F)C2)c1
CC50 at 72 h [1]: 11 µM

Compound: COC1COCCN(S(=O)(=O)c2cc(C(=O)Nc3ccc(F)c(Cl)c3)ccc2F)C1 (stereo not drawn)
CC50 at 72 h [1]: 8.7 µM

Compound: CN1CCN(S(=O)(=O)c2cc(C(=O)Nc3ccc(F)c(Cl)c3)ccc2F)CC(O)C1 (stereo not drawn)
CC50 at 72 h [1]: 31 µM

half-life [3]: 15 to 19 h | logP [5]: 3.2 | Kp [6]: 6
Compound: O=C(Nc1cc(F)c(F)c(F)c1)c1ccc(F)c(S(=O)(=O)N2CCC(O)CC2)c1
Activity [4]: 1.7 log10IU/ml

Compound: CC1(O)CCCN(S(=O)(=O)c2cc(C(=O)Nc3ccc(F)c(Cl)c3)ccc2F)CC1 (stereo not drawn)
CC50 at 72 h [1]: 11 µM

Compound: O=C(Nc1ccc(F)c(Cl)c1)c1ccc(F)c(S(=O)(=O)N2CCOC[C@@H](O)C2)c1
CC50 at 72 h [1]: 14 µM

Compound: CC1(O)CCCCN(S(=O)(=O)c2cc(C(=O)Nc3ccc(F)c(Cl)c3)ccc2F)C1 (stereo not drawn)
CC50 at 72 h [1]: 10 µM

half-life [2]: 0.267 h
Compound: O=C(Nc1ccc(F)c(Cl)c1)c1ccc(F)c(S(=O)(=O)N2CCCCCC(O)C2)c1 (stereo not drawn)
CC50 at 72 h [1]: 11 µM

bioavailability [7]: 78% | bioavailability [8]: 53% | half-life [9]: 2.6 h | half-life [10]: 0.6 h | half-life [11]: 4.6 h | clearance [12]: 28 mL/min/kg | clearance [13]: 88 mL/min/kg | clearance [14]: 5.4 mL/min/kg | Vd [15]: 4.1 L/kg | Vd [16]: 3.3 L/kg | Vd [17]: 1.3 L/kg | logP ([5]; read-out: logP): 2.6 | Kp [6]: 15 | half-life [19]: 0.8 h | half-life [20]: 0.467 h | half-life [21]: 4.63 h | Stability [22]: Stable
Compound: O=C(Nc1ccc(F)c(Cl)c1)c1ccc(F)c(S(=O)(=O)N2CCOC[C@H](O)C2)c1
CC50 at 72 h [1]: 19 µM | Ratio EC50 [18]: 6

solubility [23]: Insoluble
Compound: CN1CCCN(S(=O)(=O)c2cc(C(=O)Nc3ccc(F)c(Cl)c3)ccc2F)CC1=O
CC50 at 72 h [1]: > 100 µM

half-life [2]: 8.58 h | bioavailability [7]: 12% | bioavailability [8]: 22% | half-life [9]: 3.2 h | half-life [11]: 4.6 h | clearance [12]: 34 mL/min/kg | clearance [14]: 6.4 mL/min/kg | Vd [15]: 4.1 L/kg | Vd [17]: 1.3 L/kg | AUC [24]: 0.73 µM·h | AUC [25]: 55.4 µM·h | logP ([5]; read-out: logP): 2.9 | Kp [6]: 76 | half-life [19]: 3.72 h | half-life [20]: 0.467 h | half-life [21]: 3.23 h
Compound: O=C(Nc1ccc(F)c(Cl)c1)c1ccc(F)c(S(=O)(=O)N2C[C@H](O)CC[C@H](O)C2)c1

Compound: O=C(Nc1ccc(F)c(Cl)c1)c1ccc(F)c(S(=O)(=O)N2CCCCCCC2O)c1 (stereo not drawn)
CC50 at 72 h [1]: 7 µM

half-life [2]: 4.63 h
Compound: O=C(Nc1ccc(F)c(Cl)c1)c1ccc(F)c(S(=O)(=O)N2CCOCC(O)C2)c1 (racemic)
CC50 at 72 h [1]: 7.1 to 15 µM
